Reference: PubChem BioAssay (NCI)
“And” between values parts separate entries of the source, which are not always exact repeats. Equal entries are not always repeated.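 Briefly, cells in 96-well plates were exposed to five compound concentrations for 48 h, and endpoints were estimated by linear interpolation. GI50 marks 50% less growth. TGI: concentration producing complete growth inhibition.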

Columns and labels:
Assay in all cases: NCI tumour cell line growth inhibition, 48 h
[1] = system: A498 renal
[2] = system: A549 NSCLC
[3] = system: CAKI-1 renal
[4] = system: HOP-92 NSCLC
[5] = system: KM20L2 colon
[6] = system: OVCAR-8 ovarian
[7] = system: P388 leukemia
[8] = system: P388/ADR leukemia
[9] = system: PC-3 prostate
[10] = system: RPMI-8226 leukemia
[11] = system: SF-539 CNS
[12] = system: SK-MEL-2 melanoma
[13] = system: SN12K1 renal
[14] = system: SR leukemia
[15] = system: UACC-257 melanoma
[16] = system: UO-31 renal
[17] = system: XF 498 CNS

| Structure (SMILES) | GI50 [1] [µM] | GI50 [2] [µM] | GI50 [3] [µM] | GI50 [4] [µM] | TGI [4] | GI50 [6] [µM] | GI50 [9] [µM] | TGI [9] | GI50 [10] [µM] | TGI [10] | GI50 [11] [µM] | TGI [11] | GI50 [12] [µM] | TGI [12] | GI50 [14] [µM] | TGI [14] | GI50 [15] [µM] | TGI [15] | GI50 [16] [µM] | TGI [16] | also measured |
| --- | --- | --- | --- | --- | --- | --- | --- | --- | --- | --- | --- | --- | --- | --- | --- | --- | --- | --- | --- | --- | --- |
| COc1cccc2c1C(CO)N1C(C#N)C3CC(C(=O)O)C(C1C2)N3C (stereo unspecified) | 0.304 | 4.74 | 0.404 | 0.422 | 7.63 µM and > 18.4 µM | 0.372 | 0.462 | > 100 µM | 0.0637 | 3.94 µM and 1.54 µM | 0.195 | 3.11 µM and 1.02 µM | 0.139 | 2.32 µM and 0.305 µM | 0.0308 | 7.2 µM | 0.331 | 3.96 µM and 2.11 µM | 0.365 | 4.36 µM and 2.46 µM | GI50 [5]: 0.207 µM; TGI [7]: 6.42 µM; TGI [8]: 1.09 µM; TGI [13]: > 100 µM; GI50 [17]: 1.79 µM |
| CCCCCCCCCCCCCCCCCCOP(=O)([O-])OC1CC[N+](C)(C)CC1 | 2 | 6.98 | 2.03 | 2.1 | 5.32 µM and 9.79 µM | > 10 | 0.707 | 3.46 µM and 3.75 µM | 1.18 | > 10 µM and 13.8 µM | > 10 | > 10 µM and 29.7 µM | 8.48 | > 10 µM and 30 µM | 0.87 | 4.2 µM and 5.74 µM | > 10 | > 10 µM and 45.7 µM | 4.27 | > 10 µM and 21.7 µM | TGI [1]: 7.6 µM and 14.8 µM; TGI [2]: > 10 µM and 24.6 µM; TGI [3]: > 10 µM and 15.6 µM; TGI [5]: 6.16 µM; TGI [6]: > 10 µM and 28.8 µM; TGI [17]: 29.1 µM |
